Values quoted from earlier work as cited in patent US11123309B2, “Methods for drug delivery, tumor imaging, and oxidative dehydrogenation using hierarchical ZSM-5 complex” (Imam Abdulrahman Bin Faisal University, priority 2018, dated 2021).

Q: For `Oc1ccc(/C=C/c2cc(O)cc(O)c2)cc1` [resveratrol, 3,5,4′ trihydroxy trans stilbene], which solubility in water is on record?
A: The solubility in water was 50 microgram per ml.
